In patent publication US6365769B1, “Perfluoroalkyl halides and derivatives” (3M Innovative Properties Company, priority 1991, dated 2002):

Assays:
Type in all cases: physicochemical
[1] = Surface tension of the aqueous solution, Du Nouy tensiometer; settings: for SURFACE TENSION (dynes/cm) 100 ppm: 100 ppm in water; for SURFACE TENSION (dynes/cm) 500 ppm: 500 ppm in water
Procedure: (§1) The materials of the invention were diluted in water to 0.05% (500 ppm) and/or 0.01% (100 ppm), and the surface tension of the aqueous solution was measured using a Du Nouy tensiometer. Foam height was measured as volume in a graduated cylinder. Half-life time (t ½) is the time for half the liquid present in the foam to drain from the foam. The foam was generated by a wire wisk in a Hobart mixer. Thus, 200 mL of surfactant solution to be tested is placed in a bowl of Hobart Model N-50 mixer equipped with a wire wisk stirrer and stirred for 3 minutes at medium speed (setting 2=300 rpm). The foam produced was immediately transferred to a 4000 mL graduated cylinder for measuring foam height and half-life time.

[2] = Foam height, foam generated in Hobart mixer; settings: 500 ppm in water; 200 mL solution stirred 3 minutes
Procedure: as §1

[3] = Foam half-life time (drainage of half the liquid); settings: 500 ppm in water
Procedure: as §1

Compound | SURFACE TENSION (dynes/cm) 100 ppm [1] [dynes/cm] | SURFACE TENSION (dynes/cm) 500 ppm [1] [dynes/cm] | further results
O=C(CC(C(=O)OCCC(F)(F)C(F)(F)C(F)(F)C(F)(F)F)S(=O)(=O)[O-])OCCC(F)(F)C(F)(F)C(F)(F)C(F)(F)F.[Na+] (centres unmarked) [C14, reference compound] | 30.5 | 21.7 | 
N.O=S(=O)(O)OCCC(F)(F)C(F)(F)C(F)(F)C(F)(F)C(F)(F)C(F)(F)C(F)(F)C(F)(F)F [Example 43, C8F17CH2CH2OSO3NH4] |  |  | SURFACE TENSION (dyne/cm) 500 ppm ([1]; 500 ppm as printed (second surface tension column of Tables 12, 14)): 22.8 dyne/cm; SURFACE TENSION (dyne/cm) 500 ppm ([1]; 500 ppm in water (first surface tension column of Tables 12, 14)): 19.5 dyne/cm; FOAM HEIGHT (VOLUME) [2]: 400; HALF-LIFE TIME (SEC) / t ½ [3]: <30 s
CC(C)(CNC(=O)CCNCCNCCC(=O)OCCC(F)(F)C(F)(F)C(F)(F)C(F)(F)C(F)(F)C(F)(F)C(F)(F)C(F)(F)F)CS(=O)(=O)[O-].[K+] [Example 55, C8F17CH2CH2OC(O)CH2CH2NHCH2CH2NHCH2CH2C(O)NHCH2C(CH3)2CH2SO3K] | 26.2 | 20.1 | 
CCS(=O)(=O)[O-].CC[N+](C)(C)CCOC(=O)CCNCCNCCC(=O)OCCC(F)(F)C(F)(F)C(F)(F)C(F)(F)C(F)(F)C(F)(F)C(F)(F)C(F)(F)F [Example 61, [C8F17CH2CH2OC(O)CH2CH2NHCH2CH2NHCH2CH2C(O)OCH2CH2N^+(CH3)2CH2CH3] [CH3CH2SO^−3]] | 21.3 | 19.9 | 
C8F17C2H4O(C2H4O)nH [Example 69] |  | 21.7 | 

Further lines, with some results ahead:

SURFACE TENSION (dynes/cm) 100 ppm [1] [dynes/cm] | SURFACE TENSION (dynes/cm) 500 ppm [1] [dynes/cm] | Compound | further results
24.2 | 17.7 | O=C(CC(C(=O)OCCC(F)(F)C(F)(F)C(F)(F)C(F)(F)F)S(=O)(=O)[O-])OCCC(F)(F)C(F)(F)C(F)(F)C(F)(F)F.[Na+] (centres unmarked) [Example 45, C4F9CH2CH2OC(O)CH2CH(SO3Na)C(O)OCH2CH2C4F9] | 
24.0 | 19.0 | CC(C)(CNC(=O)CCSCCC(F)(F)C(F)(F)C(F)(F)C(F)(F)C(F)(F)C(F)(F)C(F)(F)C(F)(F)F)CS(=O)(=O)[O-].[K+] [Example 47, C8F17CH2CH2SCH2CH2C(O)NHCH2C(CH3)2CH2SO3K] | 
 | 17.5 | CCCCCCCCCC(O)C/[N+](C)=C/CCCS(=O)(=O)[O-] (centres unmarked) [Example 71] | 
 | 23.1 | C8F17CH2CH2S(CH2CH2O)12(CH2CH(CH3)O)3H [Example 70] | 
